# Data as given in ChEMBL document CHEMBL1154558, “Cytotoxic prenylxanthones from Garcinia bracteata” (J Nat Prod, 2000).
# Assays:
# [1] = system: KB; assay: Cytotoxicity against human KB cells by colorimetric assay; assay type: functional, cell-based
# [2] = Inhibition of FTase by fluorimetry
SMILES,IC50 [1],Activity [2]
C=CC(C)(C)c1c(O)cc(OC)c2c1O[C@]13C(=C[C@@H]4C[C@H]1C(C)(C)O[C@@]3(CC=C(C)C)C4=O)C2=O,0.3 µg/mL,> 10 µg/mL
C=CC(C)(C)c1c(O)cc(OC)c2c1O[C@@]13C[C@H]4[C@@H](C=C1C2=O)[C@](CC=C(C)C)(OC4(C)C)C3=O,0.2 µg/mL,–
C=CC(C)(C)c1c(O)cc(O)c2c1O[C@]13C(=C[C@@H]4C[C@H]1C(C)(C)O[C@@]3(CC=C(C)C)C4=O)C2=O [BRACTATIN],0.4 µg/mL,4.7 µg/mL
C=CC(C)(C)c1c(O)cc(OC)c2c1O[C@]13[C@@H](C2=O)[C@H](OC)[C@@H]2C[C@H]1C(C)(C)O[C@@]3(CC=C(C)C)C2=O,1.5 µg/mL,> 10 µg/mL
CC(C)=CC[C@@]12OC(C)(C)[C@@H]3C[C@@H](C=C4C(=O)c5c(O)cc(O)cc5O[C@]431)C2=O,0.8 µg/mL,–
CC(C)=CC[C@]12OC(C)(C)[C@@H]3C[C@@H](C=C4C(=O)c5c(O)cc6c(c5O[C@]431)C(C)(C)[C@H](C)O6)C2=O [ISOBRACTATIN],1.5 µg/mL,5.6 µg/mL
COc1cc2c(c3c1C(=O)C1=C[C@@H]4C[C@H]5C(C)(C)O[C@](CC=C(C)C)(C4=O)[C@@]15O3)C(C)(C)[C@H](C)O2,0.8 µg/mL,> 10 µg/mL
